Reference: patent publication US20100068200A1, “Methods and Compositions for Inhibiting Atherosclerosis and Vascular Inflammation” (THE UNIVERSITY OF CONNECTICUT, priority 2008, published 2010)
Where a SMILES comes first, the peptide text is derived from it. The star is where a group is joined. Cbz = O=C(OCc1ccccc1)*

Key:
S1p2r−/− macrophage = test: reversal of caspase-11 null phenotype of S1p2r−/− macrophage; assay type: cell-based, mouse; settings: MG132 1-20 μM, chloroquine 10-100 μM, data not shown
caspase-11 = caspase-11 protein expression in elicited peritoneal macrophages (western blot); assay type: cell-based; settings: mouse elicited peritoneal macrophages; oxLDL 50 μg/ml or TNFα 50 ng/ml, 8 hrs
Method: Isolation of Thioglycolate-Elicited Peritoneal Cells. Mice were injected i.p. with 2 ml of 3% thioglycolate. Four days later, the peritoneal fluid was collected, and cells monolayer was prepared by addition of 1 ml/well (2×10^6 macrophages) into 35 mm culture dishes. Macrophage adhesion was allowed to proceed for 4 h at 37° C. in a 5% CO2 atmosphere.
Immunoprecipitation experiments. Cell or spleen extracts were prepared with RIPA buffer (25 mM Tris-HCl pH 7.6, 150 mM NaCl, 1% NP-40, 1% sodium deoxycholate, 0.1% SDS). Caspase-1 was immunoprecipitated with polyclonal rabbit anti-caspase-1 antibody (Santa Cruz) crosslinked to protein A beads and Caspase-11 was immunoprecipitated with monoclonal rat anti-caspase-11 antibody, crosslinked to protein G beads. For western blot analysis, BMDM were treated with LPS (1 μg/ml, E. coli serotype 026:B6; Sigma). Aortas or cells were solubilized in RIPA buffer or 2×SDS-sample buffer (20 mM DTT, 6% SDS, 0.25 M Tris pH 6.8, 10% Glycerol, bromophenyl blue, protease inhibitors, 1 mM sodium orthovanadate and 1 mM NaF), sonicated, boiled and separated by SDS-PAGE gel electrophoresis. […] Cells were treated as indicated with 1 μg/ml LPS (Sigma) and 50 ng/ml TNFα (Sigma) Immunoreactive bands density was quantified with Image Pro Plus Analysis Software (Media Cybernetics).

Compound: CC(C)C[C@@H](C=O)NC(=O)[C@H](CC(C)C)NC(=O)[C@H](CC(C)C)NC(=O)OCc1ccccc1 [MG132] (Cbz-Leu-Leu-Leu-aldehyde)
- reversal of caspase-11 null phenotype (S1p2r−/− macrophage): could not reverse

Compound: TNFα
- caspase-11 protein expression after stimulus (caspase-11): upregulates
